Measurements reported in patent US11702404B2, “GLP-1R modulating compounds” (priority 2019, dated 2023).

Experiments:
GLP-1R = GLP-1R (Homo sapiens, UniProt P43220); assay: GLP-1R activation: cAMP increase in CHO cells stably expressing GLP-1R; type: cell-based; details: cAMP increase, CHO cells stably expressing GLP-1R, 10 point dose response, 30 minutes incubation; read-out: EC50
[1] = Microsomal stability, human liver microsomes (predicted hepatic clearance); details: predicted from in vitro microsomal stability data

GLP-1R, sequence (P43220 24-463): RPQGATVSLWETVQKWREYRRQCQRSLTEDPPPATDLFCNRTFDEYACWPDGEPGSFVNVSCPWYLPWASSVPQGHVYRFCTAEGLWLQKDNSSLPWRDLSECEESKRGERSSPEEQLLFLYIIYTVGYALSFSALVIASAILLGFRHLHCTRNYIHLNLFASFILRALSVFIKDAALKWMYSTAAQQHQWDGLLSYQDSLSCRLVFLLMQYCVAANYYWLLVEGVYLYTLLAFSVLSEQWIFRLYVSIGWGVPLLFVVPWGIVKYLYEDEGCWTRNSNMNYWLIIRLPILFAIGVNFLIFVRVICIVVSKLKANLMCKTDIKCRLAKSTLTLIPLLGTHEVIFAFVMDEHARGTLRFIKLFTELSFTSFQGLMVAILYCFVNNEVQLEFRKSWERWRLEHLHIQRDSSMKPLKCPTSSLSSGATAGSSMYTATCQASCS

| Structure (SMILES) | EC50 (GLP-1R) | Predicted Hepatic Clearance (Pred. Cl.) [1] |
| --- | --- | --- |
| N#Cc1ccc(COc2nccc(-c3cc(F)c(Cc4nc5c(F)cc(C(=O)O)cc5n4Cc4ncco4)cc3F)n2)c(F)c1 [Example 617] | 0.55 nM | 3.67 mL/min/kg |
| N#Cc1ccc(COc2nccc(-c3ccc(Cc4nc5ccc(C(=O)O)cc5n4CC45CC(CO4)C5)cc3F)n2)c(F)c1 [Example 626] | 23.9 nM | 7.83 mL/min/kg |
| COCCn1c(Cc2ccc(-c3cccc(OCc4ccc(C#N)cc4F)n3)cc2F)nc2cc(C(=O)O)ccc21 [Example 553, 2-(4-(6-((4-cyano-2-fluorobenzyl)oxy)pyridin-2-yl)-2-fluorobenzyl)-1-(2-methoxyethyl)-1H-benzo[d]imidazole-5-carboxylic acid] | 19.8 nM | 4.17 mL/min/kg |
| COCCn1c(Cc2c(F)cc(-c3cccnc3OCc3ccc(C#N)cc3F)cc2F)nc2ccc(C(=O)O)cc21 [Example 179, 2-(4-(2-((4-cyano-2-fluorobenzyl)oxy)pyridin-3-yl)-2,6-difluorobenzyl)-1-(2-methoxyethyl)-1H-benzo[d]imidazole-carboxylic acid] | 45.6 nM | 3.5 mL/min/kg |
| COCCn1c(Cc2ccc(-c3cccnc3OCc3ccc(C#N)cc3F)cc2F)nc2ccc(C(=O)O)cc21 [Example 180, 2-(4-(2-((4-cyano-2-fluorobenzyl)oxy)pyridin-3-yl)-2-fluorobenzyl)-1-(2-methoxyethyl)-1H-benzo[d]imidazole-carboxylic acid] | 257 nM | 6.33 mL/min/kg |
| NC(=O)c1cc(F)c(COc2cccc(-c3cc(F)c(Cc4nc5ccc(C(=O)O)cc5n4C[C@@H]4CCO4)cc3F)n2)cn1 [Example 854, (S)-2-(4-(6-((6-carbamoyl-4-fluoropyridin-3-yl)methoxy)pyridin-2-yl)-2,5-difluorobenzyl)-1-(oxetan-2-ylmethyl)-1H-benzo[d]imidazole-6-carboxylic acid] | 0.55 nM | 2.33 mL/min/kg |
| CC1(Cn2c(Cc3cc(F)c(-c4cccc(OCc5ccc(C#N)cc5F)n4)cc3F)nc3ccc(C(=O)O)cc32)COC1 [Example 581, 2-(4-(6-((4-cyano-2-fluorobenzyl)oxy)pyridin-2-yl)-2,5-difluorobenzyl)-1-((3-methyloxetan-3-yl)methyl)-1H-benzo[d]imidazole-6-carboxylic acid] | 0.4 nM | 6.33 mL/min/kg |
| N#Cc1ccc(COc2cccc(-c3ccc(Cc4nc5ccc(C(=O)O)cc5n4CCCF)c(F)c3)n2)c(F)c1 [Example 379, 2-(4-(6-((4-cyano-2-fluorobenzyl)oxy)pyridin-2-yl)-2-fluorobenzyl)-1-(3-fluoropropyl)-1H-benzo[d]imidazole-6-carboxylic acid] | 2.8 nM | 3.5 mL/min/kg |
| N#CCC1(Cn2c(Cc3cc(F)c(-c4ccc(F)c(OCc5ccc(C#N)cc5F)n4)cc3F)nc3ccc(C(=O)O)nc32)CC1 [Example 130, 2-(4-(6-((4-cyano-2-fluorobenzyl)oxy)-5-fluoropyridin-2-yl)-2,5-difluorobenzyl)-3-((1-(cyanomethyl)cyclopropyl)methyl)-3H-imidazo[4,5-b]pyridine-5-carboxylic acid] | 0.11 nM | 5.5 mL/min/kg |
| CC(=O)N1CCC[C@H](Cn2c(Cc3ccc(-c4cccc(OCc5ccc(C#N)cc5F)n4)cc3F)nc3ccc(C(=O)O)cc32)C1 [Example 488, (R)-1-((1-acetylpiperidin-3-yl)methyl)-2-(4-(6-((4-cyano-2-fluorobenzyl)oxy)pyridin-2-yl)-2-fluorobenzyl)-1H-benzo[d]imidazole-6-carboxylic acid] | 1090 nM | 10 mL/min/kg |
| COCCn1c(Cc2ccc(-c3cccc(OCc4ccc(Cl)c5ccoc45)n3)cc2F)nc2ccc(C(=O)O)cc21 [Example 143, 2-(4-(6-((4-chlorobenzofuran-7-yl)methoxy)pyridin-2-yl)-2-fluorobenzyl)-1-(2-methoxyethyl)-1H-benzo[d]imidazole-6-carboxylic acid] | 2.59 nM | 5.33 mL/min/kg |
| COCCn1c(Cc2cc(F)c(-c3ncc(F)c(OCc4ccc(C#N)cc4F)n3)cc2F)nc2ccc(C(=O)O)cc21 [Example 160, 2-(4-(4-((4-cyano-2-fluorobenzyl)oxy)-5-fluoropyrimidin-2-yl)-2,5-difluorobenzyl)-1-(2-methoxyethyl)-1H-benzo[d]imidazole-6-carboxylic acid] | 10.2 nM | 5 mL/min/kg |
| N#Cc1ccc(COc2cccc(-c3cc(F)c(Cc4nc5ccc(C(=O)O)cc5n4CCOC4CC4)cc3F)n2)c(F)c1 [Example 629] | 1.26 nM | 1.83 mL/min/kg |
| COCCn1c(Cc2ccc(-c3ccnc(OCc4ccc(C#N)cc4OC)n3)c(F)c2)nc2ccc(C(=O)O)cc21 [Example 109, 2-(4-(2-((4-cyano-2-methoxybenzyl)oxy)pyrimidin-4-yl)-3-fluorobenzyl)-1-(2-methoxyethyl)-1H-benzo[d]imidazole-6-carboxylic acid] | 3.38 nM | 12.3 mL/min/kg |
| N#Cc1ccc(COc2cccc(-c3cc(F)c(Cc4nc5ccc(C(=O)O)cc5n4Cc4cnccn4)cc3F)n2)c(F)c1 [Example 310, 2-(4-(6-((4-cyano-2-fluorobenzyl)oxy)pyridin-2-yl)-2,5-difluorobenzyl)-1-(pyrazin-2-ylmethyl)-1H-benzo[d]imidazole-6-carboxylic acid] | 16.3 nM | 6.33 mL/min/kg |
| N#Cc1ccc(COc2nc(-c3ccc(Cc4nc5ccc(C(=O)O)cc5n4C[C@@H]4CCO4)cc3)ccc2F)c(F)c1 [Example 795] | 0.65 nM | 1.83 mL/min/kg |
| CO[C@H]1C[C@@H](Cn2c(Cc3cc(F)c(-c4cccc(OCc5ccc(C#N)cc5F)n4)cc3F)nc3ccc(C(=O)O)cc32)C1 [Example 744] | 10.6 nM | 1.83 mL/min/kg |
| N#CCC1(Cn2c(Cc3c(F)cc(-c4ccnc(OCc5ccc(C#N)cc5F)n4)cc3F)nc3ccc(C(=O)O)cc32)CC1 [Example 399, 2-(4-(2-((4-cyano-2-fluorobenzyl)oxy)pyrimidin-4-yl)-2,6-difluorobenzyl)-1-((1-(cyanomethyl)cyclopropyl)methyl)-1H-benzo[d]imidazole-6-carboxylic acid] | 2.81 nM | 3.3 mL/min/kg |
| COCCn1c(Cc2ccc(-c3cccc(OCc4cc(C(C)C)ccc4F)n3)cc2F)nc2ccc(C(=O)O)cc21 [Example 141, 2-(2-fluoro-4-(6-((2-fluoro-5-isopropylbenzyl)oxy)pyridin-2-yl)benzyl)-1-(2-methoxyethyl)-1H-benzo[d]imidazole-6-carboxylic acid] | 80.3 nM | 5.5 mL/min/kg |
| COCCn1c(Cc2ccc(-c3cccc(OCc4ccc(C#N)c5ccoc45)n3)cc2F)nc2ccc(C(=O)O)cc21 [Example 135, 2-(4-(6-((4-cyanobenzofuran-7-yl)methoxy)pyridin-2-yl)-2-fluorobenzyl)-1-(2-methoxyethyl)-1H-benzo[d]imidazole-6-carboxylic acid] | 1.76 nM | <1.83 mL/min/kg |
| O=C(O)c1cc(F)c2nc(Cc3cc(F)c(-c4nc(OCc5ccc(C(F)(F)F)cc5F)ncc4F)cc3F)n(C[C@@H]3CCO3)c2c1 [Example 884] | 0.19 nM | 3.17 mL/min/kg |
| N#CCC1(Cn2c(Cc3ccc(-c4ccnc(OCc5ccc(C#N)cc5F)n4)c(F)c3)nc3ccc(C(=O)O)cc32)CC1 [Example 281, 2-(4-(2-((4-cyano-2-fluorobenzyl)oxy)pyrimidin-4-yl)-3-fluorobenzyl)-1-((1-(cyanomethyl)cyclopropyl)methyl)-1H-benzo[d]imidazole-6-carboxylic acid] | 2.3 nM | 6.7 mL/min/kg |
| COCCn1c(Cc2cc(F)c(-c3cccc(OCc4ccc(C)nc4)n3)cc2F)nc2ccc(C(=O)O)cc21 [Example 811] | 3.57 nM | 10 mL/min/kg |
| N#Cc1ccc(COc2nc(-c3ccc(Cc4nc5c(F)cc(C(=O)O)cc5n4CC45CC(CO4)C5)c(F)c3)ccc2F)c(F)c1 [Example 771] | 2.17 nM | 1.83 mL/min/kg |
| COCCn1c(C2CCc3cc(-c4cccc(OCc5ccc(C#N)cc5F)n4)ccc32)nc2ccc(C(=O)O)cc21 (single isomer, unassigned) [Example 46, 2-(5-(6-((4-cyano-2-fluorobenzyl)oxy)pyridin-2-yl)-2,3-dihydro-1H-inden-1-yl)-1-(2-methoxyethyl)-1H-benzo[d]imidazole-6-carboxylic acid] | 62.4 nM | 5 mL/min/kg |
| N#Cc1ccc(COc2nc(-c3cc(F)c(Cc4nc5c(F)cc(C(=O)O)cc5n4C[C@@H]4CCO4)cc3F)ccc2F)c(F)c1 [Example 768] | 0.04 nM | 2.75 mL/min/kg |
| COCCn1c(Cc2ccc(-c3cccc(OCc4ccc(C#N)cc4F)n3)cc2-c2cccc(OC)c2)nc2ccc(C(=O)O)cc21 [Example 188, 2-((5-(6-((4-cyano-2-fluorobenzyl)oxy)pyridin-2-yl)-3′-methoxy-[1,1′-biphenyl]-2-yl)methyl)-1-(2-methoxyethyl)-1H-benzo[d]imidazole-6-carboxylic acid] | 36.9 nM | 17.5 mL/min/kg |
| COCCn1c(Cc2ccc(-c3cccc(OCc4ccc(C#N)cc4F)n3)cc2F)nc2ccc(C(=O)O)nc21 [Example 200, 2-(4-(6-((4-cyano-2-fluorobenzyl)oxy)pyridin-2-yl)-2-fluorobenzyl)-3-(2-methoxyethyl)-3H-imidazo[4,5-b]pyridine-5-carboxylic acid] | 18 nM | 2.83 mL/min/kg |
